The values that follow come from patent publication US12668600B2 (Kumquat Biosciences Inc., priority 2023, dated 2026).

Holding throughout (format): biochemical
One assay concerns the target T1, KRAS G12D (Homo sapiens, UniProt P01116, G12D).
T1 construct: made in house; host or cells: E. coli, e.g. BL21 (DE3)
Description: HTRF KRAS-SOS1 interaction assay, KRAS G12D. Conditions: binned ≤2 μM / >2 μM, read-out: Inhibition of KRAS G12D (IC50). The method, boiled down:
(§1)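 GST-tagged KRAS (WT or mutant) with anti-GST-Eu donor, mixed with His-hSOS1 and anti-6His-XL665 acceptor. Buffer ~5 mM HEPES pH 7.4, ~150 mM NaCl, ~1 mM DTT, 0.05% BSA, 0.0025% Igepal; incubated about 10 min or longer. HTRF 665/620 ratio, compounds in duplicate up to 10 μM, IC50 derived.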

The next assay has as its target T2, KRAS WT (Homo sapiens, UniProt P01116).
T2 construct: made in house; host or cells: E. coli, e.g. BL21 (DE3)
Description: HTRF KRAS-SOS1 interaction assay, wildtype KRAS. Conditions: binned ≤2 μM / >2 μM, read-out: Inhibition of KRAS WT (IC50). The method, boiled down:
as §1

The target of another assay is T3, KRAS G12V (Homo sapiens, UniProt P01116, G12V).
T3 construct: made in house; host or cells: E. coli, e.g. BL21 (DE3)
Description: HTRF KRAS-SOS1 interaction assay, KRAS G12V. To be noted: binned ≤2 μM / >2 μM, read-out: Inhibition of KRAS G12V (IC50). An outline of the steps: as §1

The target of another assay is T4, KRAS G12S (Homo sapiens, UniProt P01116, G12S).
T4 construct: made in house; host or cells: E. coli, e.g. BL21 (DE3)
Description: HTRF KRAS-SOS1 interaction assay, KRAS G12S. To be noted: binned ≤2 μM / >2 μM, read-out: Inhibition of KRAS G12S (IC50). The method, boiled down:
as §1
On the technique in general: In TR-FRET formats the signal depends on donor and acceptor labels being close together.

T3 sequence (P01116 1-188 isoform P01116-2 G12V): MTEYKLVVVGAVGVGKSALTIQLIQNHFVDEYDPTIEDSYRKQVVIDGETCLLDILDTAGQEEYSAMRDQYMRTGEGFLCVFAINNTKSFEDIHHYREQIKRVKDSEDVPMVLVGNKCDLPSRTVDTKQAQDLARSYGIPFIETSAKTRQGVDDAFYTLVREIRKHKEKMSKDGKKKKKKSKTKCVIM
T1 sequence (P01116 1-188 isoform P01116-2 G12D): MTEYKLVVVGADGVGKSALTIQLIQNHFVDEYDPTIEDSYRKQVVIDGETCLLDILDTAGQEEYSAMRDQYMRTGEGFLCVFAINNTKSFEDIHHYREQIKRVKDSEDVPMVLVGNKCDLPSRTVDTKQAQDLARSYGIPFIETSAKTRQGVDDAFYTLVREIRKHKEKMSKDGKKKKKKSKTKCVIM
T2 sequence (P01116 1-188 isoform P01116-2): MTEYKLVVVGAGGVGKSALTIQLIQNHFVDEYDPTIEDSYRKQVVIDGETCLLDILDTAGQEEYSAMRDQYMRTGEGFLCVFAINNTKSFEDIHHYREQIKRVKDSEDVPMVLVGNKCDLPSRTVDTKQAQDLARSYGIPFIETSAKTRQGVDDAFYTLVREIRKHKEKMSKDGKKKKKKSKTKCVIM
T4 sequence (P01116 1-188 isoform P01116-2 G12S): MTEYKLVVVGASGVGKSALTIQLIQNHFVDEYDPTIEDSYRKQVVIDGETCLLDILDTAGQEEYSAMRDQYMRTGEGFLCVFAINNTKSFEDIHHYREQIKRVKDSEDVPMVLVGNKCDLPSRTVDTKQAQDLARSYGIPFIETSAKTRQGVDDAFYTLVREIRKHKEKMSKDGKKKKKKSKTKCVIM

Take `N#Cc1c(N)sc2c(F)ccc(-c3c(C(F)(F)F)c4c5c(nc(OC[C@@]67CCCN6CC(=C(F)F)C7)nc5c3F)N([C@H](CCC(F)(F)F)c3cc(F)cnc3N)CCO4)c12` [Compound 640, 2-amino-4-(4-((R)-1-(2-amino-5-fluoropyridin-3-yl)-4,4,4-trifluorobutyl)-2-(((S)-2-(difluoromethylene)tetrahydro-1H-pyrrolizin-7a(5H)-yl)methoxy)-10-fluoro-8-(trifluoromethyl)-5,6-dihydro-4H-[1,4]oxazepino[5,6,7-de]quinazolin-9-yl)-7-fluorobenzo[b]thiophene-3-carbonitrile]: the half-inhibitory concentration (IC50) on KRAS G12D, at KRAS WT, on KRAS G12V and at KRAS G12S was no more than 2000 nM in each case.
For `C[C@@H]1CN(CC2(COc3nc4c5c(c(C(F)(F)F)c(-c6ccc(F)c7sc(N)c(C#N)c67)c(F)c5n3)OCCN4[C@H](C)c3cccnc3N)CC2)C[C@H](C)O1` [Compound 710, 2-amino-4-(4-((R)-1-(2-aminopyridin-3-yl)ethyl)-2-((1-(((2S,6R)-2,6-dimethylmorpholino)methyl)cyclopropyl)methoxy)-10-fluoro-8-(trifluoromethyl)-5,6-dihydro-4H-[1,4]oxazepino[5,6,7-de]quinazolin-9-yl)-7-fluorobenzo[b]thiophene-3-carbonitrile], the half-maximal inhibitory concentration (IC50) at KRAS G12D was greater than 2000 nM; on KRAS WT it was no more than 2000 nM; on KRAS G12V it was no more than 2000 nM; on KRAS G12S, no more than 2000 nM.
In the case of `COCC[C@H](c1cccnc1N)N1CCOc2c(C(F)(F)F)c(-c3ccc(F)c4sc(N)c(C#N)c34)c(F)c3nc(OC[C@@]45CCCN4C[C@H](F)C5)nc1c23` [Compound 782, 2-amino-4-(4-((R)-1-(2-aminopyridin-3-yl)-3-methoxypropyl)-10-fluoro-2-(((2R,7aS)-2-fluorotetrahydro-1H-pyrrolizin-7a(5H)-yl)methoxy)-8-(trifluoromethyl)-5,6-dihydro-4H-[1,4]oxazepino[5,6,7-de]quinazolin-9-yl)-7-fluorobenzo[b]thiophene-3-carbonitrile], the IC50 on KRAS G12D, at KRAS WT, at KRAS G12V and at KRAS G12S was no more than 2000 nM each time.

Usually IC50 stands for the concentration that gives 50% inhibition.
